In one assay the target is T1, PRL-3 (Homo sapiens, UniProt O75365).
T1 construct: His-TEV (cleaved yes); made in house
Description: DiFMUP phosphatase activity assay for PRLs. Format: biochemical. As to the method:
Biochemical phosphatase activity measurements were carried out in the presence of different concentrations of various polyphenols, compounds 1–11 (Fig 1), using recombinant PRL-3 and 6,8-difluoro-4-methylumbelliferyl phosphate (DiFMUP) as a fluorogenic substrate (see the experimental procedures). We observed that the monomeric epicatechins EGC and EC inhibit PRL-3 only weakly, with a slightly better activity of EGC, which bears three hydroxyl groups at the B-ring. […] In general, as a basic structure activity-relationship the following trend was observed: a higher number of hydroxyl groups at the B-ring increased the activity slightly. […] The influence of the stereochemistry at C(2)–C(3) was studied by using GCG (the trans-epimer of EGCG).
(§1) Fig 2 Effect of polyphenolic compounds 8 (A), 9 (B), 10 (C) and 11 (D) on the phosphatase activity of PRL-1, PRL-2, PRL-3, PP1, and PP2A. Proteins were incubated for 30 min with 0–1000 μM of the corresponding procyandin 8–11. Phosphatase activity was measured in the presence of DiFMUP at 25°C using the concentration corresponding to the KM of each protein. The KM for PRLs was determined separately (PRL-3 = 21 μM, PRL-2 and PRL-1 = 24 μM). The KM for PP1 (91 μM) and for PP2A (100 μM) was taken from the literature. Protein concentrations are 50 nM for all PRLs and 2 mU for PP1 and 0.05 U for PP2A (see the Experimental Procedures). Phosphatase activity in the absence of inhibitors was set as 100%. Data represent means ± standard errors of the mean (n = 3–5).
(§2) DiFMUP assay for PRLs: In a final reaction volume of 100 μL the PRLs (50 nM final concentration) were incubated with decreasing concentrations of the inhibitory polyphenols for 30 minutes at 25°C. The buffer conditions were 108 mM TrisCl (pH 7.5), Triton 0.05% (v/v), DTT 27.0 mM, NaCl 811 mM. After the incubation time 20 μL DiFMUP (6,8-Difluoro-4-methylumbelliferyl phosphate) was added to reach a final concentration of 21 μM for PRL-3 and 24 μM for PRL-1 and PRL-2. On a Tecan safire2 (Tecan, Salzburg, Austria) plate reader dephosphorylation of the substrate to its fluorescent product was monitored by following the emission at 358 nm with excitation at 452 nm for 20 minutes. All measurements were done in triplicates, and the experiments were repeated at least three times. The slopes of the initial phases were obtained by linear regression of the data points. The normalized reaction rates were plotted versus the log of the inhibitor concentrations and the IC50 values were obtained by fitting the curves using the one site competition model of GraphPad Prism (GraphPad Software, Version 5). KM values were determined by measuring reaction kinetics of substrate dilution series. Initial velocities were plotted against DiFMUP concentration and the data was analyzed by Michaelis-Menten kinetics curve fitting of GraphPad Prism. A final DMSO content of 0.4% was maintained for the monomeric catechins. Due to the high water solubility of the procyanidins DMSO was not required and measurements were done in assay buffer only.

For another assay, the target named is T2, PP2A (Homo sapiens, UniProt P67775).
T2 construct: purified from human red blood cells; purchased Merck Millipore; host or cells: human red blood cells
Put plainly: DiFMUP assay for PP2A. Format: biochemical. Conditions: 0.05 U PP2A, 30 min preincubation, 25°C, no BSA, mean ± SEM (n = 3–5), read-out: IC50 (Ki) PP2A. As to the method:
as §1
(§3) BSA, which is usually supplemented to the assay buffer for stabilizing the PPs was however excluded, as BSA is known to form complexes with polyphenolic compounds [40–42] and thus would decrease the concentrations of the inhibitor in the assay. […] In contrast, the phosphatase activity of PP2A was suppressed to a much lesser extent with weak (for trimer 9 and hexamer 11) and strong statistical significance (dimer 8 and tetramer 10). Thus our results corroborate the data reported previously.
Chemicals and vendors were as follows: Synthesis of Procyanidins (dimer to dodecamer) was done as previously reported. EGCG, EGC, ECG and EC were synthesized as previously reported or purchased from Sigma. (+)-Catechin and 3-(4,5-dimethylthiazol-2-yl)-2,5-diphenyltetrazolium bromide (MTT) were obtained from Sigma. 6,8-Difluoro-4-Methylumbelliferyl Phosphate (DiFMUP), propidium iodide and calcein AM were from lifescience technologies. Cell dissociation solution (10X) was purchased from amsbio. PP1c (recombinant from E. coli) was purchased from NewEngland Biolabs and PP2A (purified from human red blood cells, contains different subunits according to manufacturer) from Merck Millipore. Transwell plates (BRANDplates) and insert stripes for the migration assay were purchased from Brand GmbH. Black 96 well plates (96F Nunclon Delta) were purchased from Thermo Scientific. Transparent 96 well assay plates with UV transparent bottom were purchased from Corning Inc. Wound healing experiments were carried out with μ-dish 35 mm culture inserts, which were purchased from Ibidi.
DiFMUP assay for PP2A: In a final reaction volume of 100 μL PP2A (0.05 U final concentration, according to manufacturer’s instructions) were incubated with decreasing concentrations of the inhibitory polyphenols for 30 minutes at 25°C. The assay buffer contained 50 mM TrisCl (pH 7.5), 250 mM NaCl, 0.1 mM EDTA, 1 mM MnCl2, and 2 mM dithiothreitol (DTT). […] Monitoring of the fluorescent dephosphorylation product was monitored and data analyzed as described above.

The next assay deals with T3, PP1 (Oryctolagus cuniculus, UniProt P62139).
T3 construct: purchased NewEngland Biolabs; host or cells: E. coli
Put plainly: DiFMUP assay for PP1. Format: biochemical. As to the method:
as §1, §3
DiFMUP assay for PP1: In a final reaction volume of 100 μL PP1c (2 mU final concentration, according to manufacturer’s instructions) were incubated with decreasing concentrations of the inhibitory polyphenols for 30 minutes at 25°C. The assay buffer contained 25 mM imidazole (pH 7.4), 1 mM dithiothreitol (DTT), and 50 mM NaCl. Bovine serum albumin (BSA) was excluded due to possible binding of the polyphenolic compounds. After the incubation time 20 μL DiFMUP (6,8-Difluoro-4-methylumbelliferyl phosphate) was added to reach a final concentration of 100 μM. Monitoring of the fluorescent dephosphorylation product was monitored and data analyzed as described above.

Another assay deals with T4, PRL-2 (Homo sapiens, UniProt Q12974).
T4 construct: His-TEV (cleaved yes); made in house
T4 sequence (Q12974 1-167): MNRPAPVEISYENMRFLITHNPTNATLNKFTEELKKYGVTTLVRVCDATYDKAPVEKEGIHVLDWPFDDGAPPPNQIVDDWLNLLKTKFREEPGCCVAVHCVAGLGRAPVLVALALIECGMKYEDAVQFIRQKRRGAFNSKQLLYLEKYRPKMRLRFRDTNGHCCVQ
Description: DiFMUP phosphatase activity assay for PRLs. The following applies: 50 nM PRL-2, 30 min preincubation, 25°C, 24 μM DiFMUP; mean ± SEM (n = 3–5); read-out: IC50 (Ki) PRL-2. Format: biochemical. As to the method:
as §1, §2

For assay [1], the system named is PRL-3 overexpressing HEK293 cells. Description: Wound healing assay. Conditions: 35 μM analog 3, PRL-3 overexpressing cells. Format: cell-based. As to the method:
(§4) To study if procyanidin C2 is able to inhibit PRL-1 and PRL-3 in cells, HEK293 cells were treated in a wound-healing assay (see the experimental procedures). […] As a control the empty vector cell line was again utilized. […] The migration speed was for all cell lines similar when treated with 50 μM of 9. To further corroborate these findings we performed additionally a transwell assay as an alternative way to study cell migration.
(§5) Fig 6 Wound healing abilities of PRL-1 or PRL-3 overexpressing or empty vector control HEK293 cell lines were analyzed in the presence of compound 9 or medium only. Cells were seeded at a concentration of 800,000 cells per insert and procyanidin C2 (9) was added at a concentration of 25 and 50 μM. A) Pictures of the wound gaps were taken at 0 h and 7 h for both conditions (with and without treatment). B) Quantification of the wound healing experiment. Speed of migration is shown for combined data from different replicates, as mean ± SD (n = 38–88). Two-sided t-tests with Welsh correction were performed for p < 0.05. ns = not significant;***: < 0.001; **: < 0.01; *: < 0.05. C) Effect of polyphenolic compounds in a transwell assay on the cell migration of HEK293 empty vector and PRL-3 overexpressing cell lines. Cells were seeded at a concentration of 100,000 cells per insert and procyanidin C2 (9) was added at a final concentration of 25 and 50 μM. Migration was allowed for 16 h before harvesting and staining with calcein AM for fluorescent readout. Mean ± SD (n = 60–72) is shown for combined data from different replicates. Two-sided t-tests with Welsh correction were performed for p < 0.05. ns = not significant. D) Quantification of wound healing experiment including blocking PRL-1 and PRL-3 with analog 3. Speed of migration is shown for combined data from different replicates, as mean ± SD (n = 63–82). Two-sided t-tests with Welsh correction were performed for p < 0.05.
(§6) Wound healing experiments were carried out with μ-dish 35mm culture inserts. 8 × 10^5 cells/mL of the respective HEK293 stable cell lines were seeded into each of the two insert wells and allowed to settle for 40 h in the presence of tetracycline. Then the inserts were gently removed and growth medium supplemented with 7.5% FBS and 0.1% tetracycline was added as well as procyanidin C2 (9) or procyanidin B3 (8) at a final concentration of 25, 50 or 75 μM. For the experiment including blocking of PRLs with analog 3, the latter one was added at a final concentration of 35 μM, followed by addition of procyanidin C2 (9) at either 25 or 50 μM final concentration. Negative controls contained growth medium with FBS only. Pictures of the wound gap were taken at 0 h and 7 h time points. A Zeiss Cellobserver HS microscope was used with 10 × magnitude. For data analysis, in each experiment, the distances between both cell fronts at time point 0 h and 7 h were measured by taking 20 different measuring points. Then all the measurements from different replicates (4) for each experiment were combined and analyzed by t-test using Welsh correction in GraphPad Prism. Data are shown with 99% confidence intervals.

The test system of assay [2] is PRL-1 overexpressing HEK293 cells. Put plainly: Wound healing assay. Format: cell-based. Conditions: 35 μM analog 3, PRL-1 overexpressing cells. As to the method:
as §4, §5, §6

The next assay addresses T5, PRL-1 (Homo sapiens, UniProt Q93096).
T5 construct: His-TEV (cleaved yes); made in house
T5 sequence (Q93096 1-173): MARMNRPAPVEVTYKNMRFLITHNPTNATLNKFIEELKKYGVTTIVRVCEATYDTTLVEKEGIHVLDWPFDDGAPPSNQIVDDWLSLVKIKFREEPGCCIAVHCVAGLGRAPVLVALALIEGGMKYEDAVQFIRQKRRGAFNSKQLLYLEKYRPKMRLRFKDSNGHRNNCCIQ
Put plainly: DiFMUP phosphatase activity assay for PRLs. Format: biochemical. As to the method: as §1, §2

[3] abbreviates: 50 nM PRL-3, 30 min preincubation, 25°C, 21 μM DiFMUP, mean ± SEM (n = 3–5), read-out: IC50 (Ki) PRL-3.

Results on eight molecules are retold here after article PMC4520450, “Procyanidins Negatively Affect the Activity of the Phosphatases of Regenerating Liver” (PLoS ONE, 2015).

Read-outs that look alike come from different tables or passages of the source.

T1 sequence (O75365 whole entry): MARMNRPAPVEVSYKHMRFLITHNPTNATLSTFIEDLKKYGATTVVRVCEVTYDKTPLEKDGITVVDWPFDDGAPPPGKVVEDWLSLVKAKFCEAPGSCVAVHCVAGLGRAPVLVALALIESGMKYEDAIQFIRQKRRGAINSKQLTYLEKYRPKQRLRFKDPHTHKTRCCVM
T3 sequence (P62139 whole entry): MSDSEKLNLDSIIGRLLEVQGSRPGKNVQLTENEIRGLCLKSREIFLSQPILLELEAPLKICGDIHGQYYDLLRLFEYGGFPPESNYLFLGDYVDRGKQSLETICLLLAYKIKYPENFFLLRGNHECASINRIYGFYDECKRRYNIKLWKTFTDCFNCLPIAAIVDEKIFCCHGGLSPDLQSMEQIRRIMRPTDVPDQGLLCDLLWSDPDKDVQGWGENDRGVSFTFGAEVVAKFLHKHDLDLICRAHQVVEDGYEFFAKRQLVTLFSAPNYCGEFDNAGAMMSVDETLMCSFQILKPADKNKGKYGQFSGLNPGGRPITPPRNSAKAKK
T2 sequence (P67775 whole entry): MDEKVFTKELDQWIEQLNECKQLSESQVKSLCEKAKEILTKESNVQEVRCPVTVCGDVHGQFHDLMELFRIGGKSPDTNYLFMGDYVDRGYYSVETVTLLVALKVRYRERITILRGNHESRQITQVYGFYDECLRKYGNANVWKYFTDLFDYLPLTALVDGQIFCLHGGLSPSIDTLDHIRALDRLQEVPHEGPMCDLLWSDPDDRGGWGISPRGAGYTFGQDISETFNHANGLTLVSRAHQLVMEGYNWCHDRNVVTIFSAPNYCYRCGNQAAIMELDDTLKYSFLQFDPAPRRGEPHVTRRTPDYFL
T2 sequence (P30153 2-589 partner limits assumed): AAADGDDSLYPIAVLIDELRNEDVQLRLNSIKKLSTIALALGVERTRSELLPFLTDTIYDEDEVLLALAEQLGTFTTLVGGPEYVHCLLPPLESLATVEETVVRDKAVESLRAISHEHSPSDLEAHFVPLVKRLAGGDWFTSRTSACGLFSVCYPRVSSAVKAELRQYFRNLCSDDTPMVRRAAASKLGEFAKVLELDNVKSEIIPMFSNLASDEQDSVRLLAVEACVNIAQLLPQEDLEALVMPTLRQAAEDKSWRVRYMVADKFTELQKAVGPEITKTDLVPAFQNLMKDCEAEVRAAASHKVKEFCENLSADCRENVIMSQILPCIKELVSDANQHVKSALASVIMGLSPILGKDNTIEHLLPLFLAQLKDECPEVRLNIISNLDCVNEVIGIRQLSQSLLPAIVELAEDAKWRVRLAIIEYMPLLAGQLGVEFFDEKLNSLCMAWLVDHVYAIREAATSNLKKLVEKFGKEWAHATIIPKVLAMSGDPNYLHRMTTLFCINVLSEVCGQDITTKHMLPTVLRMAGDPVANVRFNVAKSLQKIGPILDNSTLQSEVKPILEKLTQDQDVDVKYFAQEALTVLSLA

As to `Oc1cc(O)c2c(c1)O[C@H](c1ccc(O)c(O)c1)[C@@H](O)[C@@H]2c1c(O)cc(O)c2c1O[C@H](c1ccc(O)c(O)c1)[C@@H](O)[C@@H]2c1c(O)cc(O)c2c1O[C@H](c1ccc(O)c(O)c1)[C@@H](O)[C@@H]2c1c(O)cc(O)c2c1O[C@H](c1ccc(O)c(O)c1)[C@@H](O)[C@@H]2c1c(O)cc(O)c2c1O[C@H](c1ccc(O)c(O)c1)[C@@H](O)[C@@H]2c1c(O)cc(O)c2c1O[C@H](c1ccc(O)c(O)c1)[C@@H](O)C2` [Hexamer (11)], the IC50 on PRL-3 (setting [3]) came to 12.5 ± 1.8 µM; at PP2A it was 32.5 ± 4.8 µM; at PP1 (2 mU PP1c, 30 min preincubation, 25°C, DiFMUP, no BSA, mean ± SEM (n = 3–5), read-out: IC50 (Ki) PP1) it was 7 ± 2.3 µM; on PRL-2, 10 ± 0.4 µM. The “PP1 potency of hexamer compared to tetramer 10” value on PP1 was “increased only about two-fold”.
Consider `Oc1cc(O)c2c(c1)O[C@H](c1cc(O)c(O)c(O)c1)[C@H](O)C2` [EGC (3), (–)-epigallocatechin], for which the IC50 on PRL-3 (setting [3]) came to 285 ± 3.7 µM.
On to `O=C(O[C@@H]1Cc2c(O)cc(O)cc2O[C@@H]1c1ccc(O)c(O)c1)c1cc(O)c(O)c(O)c1` [ECG (2), (–)-epicatechin-3-O-gallate], for which the “increase in PRL-3 inhibition of 3-gallate ester compared to non-gallate (2 vs 1, 4 vs 3)” value on PRL-3 is recorded as “about two-fold increase”. Besides, the IC50 at PRL-3 (setting [3]) stood at 181 ± 13.6 µM.
On to `O=C(O[C@H]1Cc2c(O)cc(O)cc2O[C@@H]1c1cc(O)c(O)c(O)c1)c1cc(O)c(O)c(O)c1` [GCG (5)], for which the IC50 on PRL-3 (setting [3]) came out at 113 ± 10.7 µM.
Turning to `Oc1cc(O)c2c(c1)O[C@H](c1cc(O)c(O)c(O)c1)[C@H](O)C2` [analog 3, reference compound], the “migration speed, wound healing” value in assay [1] was “fell back to the baseline level of the empty vector cell line”; in assay [2] it was “a bit lower than the baseline”.
For `Oc1cc(O)c2c(c1)O[C@H](c1ccc(O)c(O)c1)[C@@H](O)C2` [(+)-Catechin (6), (+)-Catechin], at PRL-3 (setting [3]), the IC50 turned out to be 456 ± 65.6 µM. Besides, on PRL-1, the “IC50 toward PRL-1 relative to IC50 values of the oligomers” value turned out to be 50 fold and the “IC50 toward PRL-1 relative to PRL-3” value is recorded as “about three times lower”. For the same molecule, the IC50 on PRL-1 (50 nM PRL-1, 30 min preincubation, 25°C, 24 μM DiFMUP, mean ± SEM (n = 3–5), read-out: IC50 (Ki) PRL-1) was found to be 158 ± 1.2 µM.
`Oc1cc(O)c2c(c1)O[C@H](c1ccc(O)c(O)c1)[C@H](O)C2` [EC (1), (–)-epicatechin]: the IC50 on PRL-3 (setting [3]) is 514 ± 68.2 µM.
As for `O=C(O)c1cc(O)c(O)c(O)c1` [Gallic acid (7), Gallic acid], at PRL-3, the IC50 is over 1000 µM. For the same molecule, the “inhibition of PRL-3” value on PRL-3 (up to 1000 μM) was “did not show any inhibition”.

For orientation: IC50 means the concentration at which inhibition is half-maximal.
